{
  "source": "paper PMC5133935",
  "about": "“Hydrostatin-TL1, an Anti-Inflammatory Active Peptide from the Venom Gland of Hydrophis cyanocinctus in the South China Sea” (International Journal of Molecular Sciences, 2016)",
  "origin": "cited, not measured here",
  "test_system": "TNF-α",
  "details": "cited from earlier work",
  "description": "Snake-derived products have been used as traditional Chinese medicines for centuries in China; however, their mechanisms of action and active constituents are still unknown. Snake venom, which is a mixture of proteins and peptides, has various biological properties including antitumor, anti-inflammatory, anti-stroke, and analgesic activities. […] Venom from s ...",
  "data": [
    {"substance": "Cathelicidin-BF", "values": [
      {"measurement": "antimicrobial and anti-inflammatory properties", "result": "both antimicrobial and anti-inflammatory properties"},
      {"measurement": "expression and secretion of TNF-α", "result": "decreases the expression and secretion of TNF-α"}
    ]}
  ]
}
